According to paper PMC4677665 (ACS Medicinal Chemistry Letters, 2015):
Blank lines part the entries; values can stand above or below the compound they belong to.

How the values were obtained:
[1] = Brain penetration experiment; format: in vivo, mice; settings: mouse, ip, 5 mg/kg
[2] = system: CRL-8155 human lymphocytic cells; settings: CRL-8155 cell line, 48 hours
[3] = system: Type I RH strain T. gondii
[4] = system: panel of ∼80 diverse human kinases; settings: read-out: IC50s of the kinases inhibited below 1 μM; three of the 80 kinases

Kp [1]: 0.158
Compound: CCOc1ccc2cc(-c3nn(C(C)(C)C)c(N)c3C(N)=O)cnc2c1 [Compound 1]
cytotoxicity [2]: >30 µM
T. gondii infection, peritoneal parasite count (in words) ([3]; po for 5 days, twice daily): significantly reduced T. gondii infection

Compound: CCOc1ccc2cc(-c3nn(CC4CC4)c(N)c3C(N)=O)cnc2c1 [Compound 6]
cytotoxicity [2]: >40 µM

Compound: CCOc1ccc2cc(-c3nn(C4CCC4)c(N)c3C(N)=O)cnc2c1 [Compound 7]
cytotoxicity [2]: >40 µM

Compound: CCOc1ccc2cc(-c3nn(C4CCCC4)c(N)c3C(N)=O)cnc2c1 [Compound 8]
cytotoxicity [2]: >40 µM

Compound: CCOc1ccc2cc(-c3nn(C4CCCCCC4)c(N)c3C(N)=O)cnc2c1 [Compound 11]
cytotoxicity [2]: >40 µM

Compound: CCOc1ccc2cc(-c3nn(CC(C)(C)CO)c(N)c3C(N)=O)cnc2c1 [Compound 16]
cytotoxicity [2]: >40 µM

Compound: CCOc1ccc2cc(-c3nn(C(C)(C)C)c(N)c3C(N)=O)ccc2n1 [Compound 17]
cytotoxicity [2]: >40 µM

Compound: CCOc1ccc2cc(-c3nn(CC4CC4)c(N)c3C(N)=O)ccc2n1 [Compound 19]
cytotoxicity [2]: >40 µM

Compound: CCOc1ccc2cc(-c3nn(CC(C)(C)CO)c(N)c3C(N)=O)ccc2n1 [Compound 22]
cytotoxicity [2]: >40 µM

Compound: CC(C)(C)n1nc(-c2cnc3cc(F)ccc3c2)c(C(N)=O)c1N [Compound 23]
cytotoxicity [2]: >40 µM

Compound: COc1ccc2cc(-c3nn(C(C)(C)C)c(N)c3C(N)=O)cnc2c1 [Compound 28]
cytotoxicity [2]: >40 µM

Compound: CC(C)Oc1ccc2cc(-c3nn(C(C)(C)C)c(N)c3C(N)=O)cnc2c1 [Compound 30]
cytotoxicity [2]: >40 µM

Compound: CCCOc1ccc2cc(-c3nn(C(C)(C)C)c(N)c3C(N)=O)cnc2c1 [Compound 31]
cytotoxicity [2]: >40 µM

Compound: CC(C)(C)n1nc(-c2cnc3cc(OCC4CC4)ccc3c2)c(C(N)=O)c1N [Compound 32]
cytotoxicity [2]: >40 µM

Compound: CC(C)(C)n1nc(-c2ccc3nc(OC4CC4)ccc3c2)c(C(N)=O)c1N [Compound 35]
IC50 [4]: 200 to 500 nM
cytotoxicity [2]: >40 µM
T. gondii in the peritoneal fluid (in words) ([3]; 20 mg/kg): eliminated T. gondii from the peritoneal fluid
death of treated mice ([3]; 50 mg/kg group, po): one mouse in the 35, 50 mg/kg group died on the fifth day of treatment

Compound: CC(C)(C)n1nc(-c2ccc3nc(OC4CCC4)ccc3c2)c(C(N)=O)c1N [Compound 37]
cytotoxicity [2]: >40 µM
